Measured values: patent publication US20090176817A1, “Method of Treatment of Diarrhea-Predominant Irritable Bowel Syndrome in a Subject” (priority 2005, published 2009)

Columns and labels:
clinical = settings: human, in vivo, po
Procedure: Two randomized, double-blind, placebo controlled, rising dose, crossover studies evaluated the single-dose pharmacokinetics of oral cilansetron over a 4 mg to 64 mg dose range. In one study, 24 male subjects (aged 21-36 years) received, at intervals of […], single oral doses of 4, 8, and 16 mg cilansetron in ascending order and a randomized placebo. In the other study, 24 male subjects received, at intervals of ≧1 week, single oral doses of 16, 32, and 64 mg cilansetron in ascending order and a randomized placebo. All doses were administered under fasted conditions. […] Renal excretion of cilansetron was negligible across all doses, with undetectable or very low amounts (<1% of the dose) excreted unchanged in urine.
Data for the evaluation of dose proportionality of oral cilansetron is available from three studies which have evaluated the pharmacokinetics of single doses over a 2 mg to 64 mg dose range. Two randomized, double-blind, placebo controlled, rising dose, crossover studies, in 24 male subjects each, evaluated the single dose pharmacokinetics of oral cilansetron (capsules) over a 4-16 mg and 16-64 mg dose range, respectively. In each study, subjects received, at intervals of ≧1 week, single oral doses of cilansetron in ascending order and a randomized placebo. All doses were administered under fasted conditions. A third open-label, randomized, parallel-group study in 36 male and female subjects, evaluated the single dose pharmacokinetics of a cilansetron 2 mg tablet administered under fed conditions. FIG. 16 to FIG. 19 present box plots of cilansetron AUC(0-inf) and Cmax from these three studies (males only), and corresponding dose-normalized values (normalized to a 1 mg dose). […] Table 2.7.2.3.14 presents descriptive statistics of cilansetron dose-normalized AUC and Cmax in these studies, and the results of statistical comparisons between doses.

[1] = tested on: non-constipated IBS subjects; experiment: Study S241.2.112: Phase II dose-ranging efficacy; assay type: in vivo, human
Procedure: Study S241.2.112 was a Phase II, double-blind, placebo-controlled, randomized, multicenter parallel-group, dose-ranging study to investigate the efficacy and safety of cilansetron in non-constipated subjects with irritable bowel syndrome. The study was conducted in 51 study centers in the U.S. A total of at least 88 subjects were planned per treatment group evaluable for efficacy, in total 440 to complete the study; 975 subjects were screened; 490 were randomized and 481 analyzed for safety.
Diagnosis and main criteria for inclusion were IBS subjects satisfying the Rome criteria (1992) and minimum abdominal pain/discomfort, stool frequency and consistency determined during the run-in period. Subjects were treated with cilansetron 1 mg, 2 mg, 8 mg, and 16 mg tablets given orally TID or matching placebo tablets given orally TID for 12 weeks.
Efficacy was evaluated by weekly global questions concerning adequate relief of IBS symptoms (abdominal pain/discomfort, abnormal bowel habits). A responder is a subject who responded “Yes” at least 50% of the time after randomization, with a minimum treatment duration of four weeks.

[2] = tested on: healthy, elderly subjects; experiment: Study K.241.5013: gastric emptying time, elderly, 4 mg TID; assay type: in vivo, human; settings: 4 mg TID oral 14 days, mean (SD)
Description: The effect of cilansetron on gastric emptying time and colonic transit time has been studied in 1 clinical study in healthy young subjects and 2 studies in elderly subjects. For measurement of gastric emptying time, breath samples for the determination of the ^12C/^13C ratio were taken on the last day of each treatment period immediately after ingestion of a ^13C labeled meal. The patients' breath was collected in separate 15-minute intervals, for four hours in total. ^13CO2 measurements were performed with an isotope ratio mass spectrometer. The half-life (TK) and lag-time (Tlag), which describe the duration of gastric emptying, were used as the primary parameters to evaluate gastric emptying time. In all 3 studies, colonic transit time was measured by administration of radio-opaque markers for the last six days of each treatment period, followed by a single abdominal X-ray image at 24 hours after ingestion of the last set of markers. The numbers of markers within the colon were used to calculate segmental (right colon, left colon, and rectosigmoid) and total colonic transit time.
Studies K.241.5013 and K.241.5014 were randomized, double-blind, placebo-controlled, 2-way crossover studies in 8 healthy male and female elderly subjects, each (ITT population, aged 64-83 years in K.241.5013 and 66-84 years in K.241.5014). […]

**Q.** For Cc1nccn1C[C@H]1CCc2c(c3cccc4c3n2CCC4)C1=O [Cilansetron, (R)-(−)-4,5,6,8,9,10-hexahydro-10-[(2-methyl-1H-imidazol-1-yl)methyl]-11H-pyrido-[3,2,1-jk]-carbazol-11-one], which CL/F (clinical; 32 mg) is on record?
**A.** 2487 (79) mL/min

**Q.** What about the CL/F (clinical; 64 mg) of the same molecule?
**A.** 1910 (60) mL/min

**Q.** And the “DN-AUC(0-inf) ratio 32 mg/16 mg” value (clinical; male)?
**A.** 127%

**Q.** What about the “DN-AUC(0-inf) ratio 64 mg/16 mg” value (clinical; male) of the same molecule?
**A.** 158%

**Q.** What about the “DN-AUC(0-inf) ratio 64 mg/32 mg” value (clinical; male) of the same molecule?
**A.** 125%

**Q.** What about the “DN-AUC(0-last) ratio 32 mg/16 mg” value (clinical; male) of the same molecule?
**A.** 132%

**Q.** And the “DN-AUC(0-last) ratio 64 mg/16 mg” value (clinical; male)?
**A.** 168%

**Q.** And the “DN-AUC(0-last) ratio 64 mg/32 mg” value (clinical; male)?
**A.** 127%

**Q.** And the “DN-Cmax ratio 32 mg/16 mg” value (clinical; male)?
**A.** 127%

**Q.** And the “DN-Cmax ratio 64 mg/16 mg” value (clinical; male)?
**A.** 164%

**Q.** What about the “DN-Cmax ratio 64 mg/32 mg” value (clinical; male) of the same molecule?
**A.** 129%

**Q.** And the CL renal (clinical; male, 16 mg)?
**A.** 3.39 mL/min

**Q.** And the Tmax (clinical; male, 16 mg)?
**A.** 1 h

**Q.** And the AUC(0-inf) (clinical; male, 32 mg)?
**A.** 330 ng·h/mL

**Q.** And the AUC(0-t) (clinical; male, 32 mg)?
**A.** 324 ng·h/mL

**Q.** And the CL renal (clinical; male, 32 mg)?
**A.** 5 mL/min

**Q.** What about the Cmax (clinical; male, 32 mg) of the same molecule?
**A.** 143 ng/mL

**Q.** And the Tmax (clinical; male, 32 mg)?
**A.** 1 h

**Q.** And the Vd/F (clinical; male, 32 mg)?
**A.** 269 L

**Q.** And the half-life (clinical; male, 32 mg)?
**A.** 1.28 h

**Q.** What about the AUC(0-inf) (clinical; male, 64 mg) of the same molecule?
**A.** 813 ng·h/mL

**Q.** What about the AUC(0-t) (clinical; male, 64 mg) of the same molecule?
**A.** 807 ng·h/mL

**Q.** What about the CL renal (clinical; male, 64 mg) of the same molecule?
**A.** 4.5 mL/min

**Q.** What about the Cmax (clinical; male, 64 mg) of the same molecule?
**A.** 349 ng/mL

**Q.** And the Tmax (clinical; male, 64 mg)?
**A.** 1 h

**Q.** What about the Vd/F (clinical; male, 64 mg) of the same molecule?
**A.** 204 L

**Q.** What about the half-life (clinical; male, 64 mg) of the same molecule?
**A.** 1.3 h

**Q.** And the “Responder rate better than placebo” value ([1]; 1 mg TID)?
**A.** 22%

**Q.** What about the “Responder rate better than placebo” value ([1]; 1 mg, females) of the same molecule?
**A.** 26%

**Q.** And the “Responder rate higher than placebo” value ([1]; 2 mg TID)?
**A.** 13%

**Q.** And the “Responder rate higher than placebo” value ([1]; 8 mg TID)?
**A.** 15%

**Q.** What about the “Responder rate better than placebo” value ([1]; 16 mg TID) of the same molecule?
**A.** 22%

**Q.** What about the “gastric emptying time Tlag” value [2] of the same molecule?
**A.** 122 (24) min

**Q.** And the “gastric emptying time T½” value [2]?
**A.** 183 (32) min
